Test results reported in US20250320206A1, “STAT6 DEGRADERS” (Gilead Sciences, Inc., priority 2024, published 2025).

Key:
STAT6 = biological target: T1, STAT6 (Homo sapiens, UniProt P42226); assay: Stat6 Degrader Assay (HiBiT based, HeLa LgBiT clone 4.14); assay type: cell-based; conditions: HeLa LgBiT clone 4.14 HiBiT-STAT6, 4-24 h incubation; values given for compounds with >80% Emax; geometric mean; read-out: STAT6 degradation DC50
T1 construct: These cells express endogenous STAT6; host or cells: HeLa LgBiT clone 4.14
T1 sequence (P42226 1-847): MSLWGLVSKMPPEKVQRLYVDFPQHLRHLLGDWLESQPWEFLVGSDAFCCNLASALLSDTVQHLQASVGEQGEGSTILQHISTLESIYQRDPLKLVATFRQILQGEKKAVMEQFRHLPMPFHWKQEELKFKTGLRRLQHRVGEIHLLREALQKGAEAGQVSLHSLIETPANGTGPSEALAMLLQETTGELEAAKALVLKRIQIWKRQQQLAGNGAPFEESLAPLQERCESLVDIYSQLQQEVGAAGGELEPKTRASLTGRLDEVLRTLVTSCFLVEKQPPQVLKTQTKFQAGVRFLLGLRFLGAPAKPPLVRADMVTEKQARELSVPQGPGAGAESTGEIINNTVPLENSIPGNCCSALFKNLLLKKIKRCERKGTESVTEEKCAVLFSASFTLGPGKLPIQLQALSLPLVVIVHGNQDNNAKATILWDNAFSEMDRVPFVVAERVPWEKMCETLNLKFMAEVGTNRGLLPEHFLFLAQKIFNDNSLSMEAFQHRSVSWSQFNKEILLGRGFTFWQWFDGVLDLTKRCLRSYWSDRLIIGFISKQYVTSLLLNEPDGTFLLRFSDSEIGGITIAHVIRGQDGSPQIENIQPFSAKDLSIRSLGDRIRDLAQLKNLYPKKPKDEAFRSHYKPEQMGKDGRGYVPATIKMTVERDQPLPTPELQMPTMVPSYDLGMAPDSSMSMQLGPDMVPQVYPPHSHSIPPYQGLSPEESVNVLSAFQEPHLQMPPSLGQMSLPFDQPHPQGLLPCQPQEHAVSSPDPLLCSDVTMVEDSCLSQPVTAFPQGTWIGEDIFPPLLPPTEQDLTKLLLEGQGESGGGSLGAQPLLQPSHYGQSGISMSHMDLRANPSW
Outline: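 HeLa LgBiT clone 4.14 cells with CRISPR HiBiT-tagged endogenous STAT6, 5000 cells/well, compound dosed then incubated 4-24 h at 37° C, 5% CO2. Nano-Glo substrate added, 0.5 h, luminescence read as non-degraded STAT6. Terfenadine 50 μM (cell kill) defines 100% degradation.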

[1] = system: Eotaxin-3 release in human whole blood stimulated with IL-4; assay: Human Whole Blood Eotaxin-3 Assay (IL-4 stimulated eotaxin-3 release); assay type: cell-based; conditions: IL-4 stimulation, 48 h, values given for compounds with >80% Emax, geometric mean
Outline: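 Lithium-heparin human whole blood preincubated 2 h at 37° C with 4-fold serially diluted compounds (0.5% DMSO), then stimulated with recombinant human IL-4 ([…]) for 48 h. Eotaxin-3 (CCL26) in supernatant quantified by MSD immunoassay.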

Compound	DC50 (STAT6)	EC50 [1]
CN(C(=O)c1cc(F)c(C2CCN(Cc3cc4c(-n5cc(F)c6c(c5=O)CCN6)ccnc4n3C)CC2)c(F)c1)c1ccc(C2CCN(Cc3ccc4c(c3)n(C)c(=O)n4C3CCC(=O)NC3=O)CC2)cc1 (stereo not drawn) [Example 3u126, N-(4-(1-((1-(2,6-dioxopiperidin-3-yl)-3-methyl-2-oxo-2,3-dihydro-1H-benzo[d]imidazol-5-yl)methyl)piperidin-4-yl)phenyl)-3,5-difluoro-4-(1-((4-(7-fluoro-4-oxo-1,2,3,4-tetrahydro-5H-pyrrolo[3,2-c]pyridin-5-yl)-1-methyl-1H-pyrrolo[2,3-b]pyridin-2-yl)methyl)piperidin-4-yl)-N-methylbenzamide]	0.4 nM	0.2 nM
CNc1ccn(-c2ccnc3c2cc(CN2CCC(c4c(F)cc(C(=O)N5CCC(CN6CCN(Cc7ccc8c(c7)n(C)c(=O)n8[C@@H]7CCC(=O)NC7=O)CC6)CC5)cc4F)CC2)n3C)c(=O)c1 (single isomer, unassigned) [Example 3u31]	2.4 nM	2 nM
CNc1cc(=O)n(-c2ccnc3c2cc([C@H](C)N2CC=C(c4c(C)cc(C(=O)N5CCC(CC6CCN(c7ccc8c(c7)C7(CC7)C(=O)N8C7CCC(=O)NC7=O)CC6)CC5)cc4F)CC2)n3C)cc1F (stereo partly drawn) [Example 3u284, 3-(5′-(4-((1-(3-fluoro-4-(1-((S)-1-(4-(5-fluoro-4-(methylamino)-2-oxopyridin-1 (2H)-yl)-1-methyl-1H-pyrrolo[2,3-b]pyridin-2-yl)ethyl)-1,2,3,6-tetrahydropyridin-4-yl)-5-methylbenzoyl)piperidin-4-yl)methyl)piperidin-1-yl)-2′-oxospiro[cyclopropane-1,3′-indolin]-1′-yl)piperidine-2,6-dione]	22.6 nM	24 nM
CNc1ccn(-c2ccnc3c2cc([C@H](C)N2CC=C(c4c(C)cc(C(=O)N5CCC(CN6CCN(Cc7cc8c(cc7F)n(C7CCC(=O)NC7=O)c(=O)n8C)C[C@@H]6C)CC5)cc4F)CC2)n3C)c(=O)c1 (stereo partly drawn) [Example 3u207, 3-(6-fluoro-5-(((S)-4-((1-(3-fluoro-5-methyl-4-(1-((S)-1-(1-methyl-4-(4-(methyl-amino)-2-oxopyridin-1 (2H)-yl)-1H-pyrrolo[2,3-b]pyridin-2-yl)ethyl)-1,2,3,6-tetrahydropyridin-4-yl)-benzoyl)piperidin-4-yl)methyl)-3-methylpiperazin-1-yl)methyl)-3-methyl-2-oxo-2,3-dihydro-1H-benzo[d]imidazol-1-yl)piperidine-2,6-dione]	0.3 nM	0.2 nM
CNc1cc(=O)n(-c2ccnc3c2cc([C@H](C)N2CC=C(c4c(C)cc(C(=O)N5CCC(CN6CCN(Cc7ccc8c(c7)C7(CC7)C(=O)N8[C@H]7CCC(=O)NC7=O)CC6)CC5)cc4F)CC2)n3C)cc1F (single isomer, unassigned) [Example 3u67]	1.4 nM	5.8 nM
CNc1ccn(-c2ccnc3c2cc([C@H](C)N2CCC(c4ccc(C(=O)N5CCC(CN6CCN(Cc7ccc8c(c7)C(C)(C)C(=O)N8[C@@H]7CCC(=O)NC7=O)C[C@@H]6C)CC5)cc4)CC2)n3C)c(=O)c1 (single isomer, unassigned) [Example 3u189]	4.7 nM	7.7 nM
CNc1ccn(-c2ccnc3c2cc([C@H](C)N2CC=C(c4c(C)cc(C(=O)N5CCC(CN6CCN(Cc7ccc8c(c7)n(C7CC7)c(=O)n8C7CCC(=O)NC7=O)C[C@@H]6C)CC5)cc4F)CC2)n3C)c(=O)c1 (stereo partly drawn) [Example 3u111, 3-(3-cyclopropyl-5-(((S)-4-((1-(3-fluoro-5-methyl-4-(1-((S)-1-(1-methyl-4-(4-(methylamino)-2-oxopyridin-1 (2H)-yl)-1H-pyrrolo[2,3-b]pyridin-2-yl)ethyl)-1,2,3,6-tetrahydropyridin-4-yl)benzoyl)piperidin-4-yl)methyl)-3-methylpiperazin-1-yl)methyl)-2-oxo-2,3-dihydro-1H-benzo[d]imidazol-1-yl)piperidine-2,6-dione]	0.4 nM	0.3 nM
CNc1ccn(-c2ccnc3c2cc([C@H](C)N2CC=C(c4c(C)cc(C(=O)N5CCC(CN6CCN(Cc7cc8c(cc7F)n([C@@H]7CCC(=O)NC7=O)c(=O)n8C)CC6)CC5)cc4F)CC2)n3C)c(=O)c1 (single isomer, unassigned) [Example 3u12]	0.6 nM	0.5 nM
CNc1cc(=O)n(-c2ccnc3c2cc(CN2CC=C(c4c(F)cc(C(=O)N5CCC(CN6CCN(Cc7ccc8c(c7)C(C)(C)C(=O)N8[C@@H]7CCC(=O)NC7=O)C[C@@H]6C)CC5)cc4F)CC2)n3C)cc1F (single isomer, unassigned) [Example 3u79]	15.4 nM	107 nM
Cc1cc(C(=O)N2CCC(CN3CCN(Cc4ccc5c(c4)n(C)c(=O)n5C4CCC(=O)NC4=O)CC3)CC2)cc(F)c1C1=CCN([C@@H](C)c2cc3c(-n4ccc5c(c4=O)CCN5)ccnc3n2C)CC1 (stereo partly drawn) [Example 3u22, 3-(5-((4-((1-(3-fluoro-5-methyl-4-(1-((S)-1-(1-methyl-4-(4-oxo-1,2,3,4-tetrahydro-5H-pyrrolo[3,2-c]pyridin-5-yl)-1H-pyrrolo[2,3-b]pyridin-2-yl)ethyl)-1,2,3,6-tetrahydropyridin-4-yl)-benzoyl)piperidin-4-yl)methyl)piperazin-1-yl)methyl)-3-methyl-2-oxo-2,3-dihydro-1H-benzo[d]-imidazol-1-yl)piperidine-2,6-dione]	0.7 nM	0.8 nM
CNc1cc(=O)n(-c2ccnc3c2cc([C@H](C)N2CC=C(c4c(C)cc(C(=O)N5CC=C(CC6CCN(c7ccc8c(c7)C7(CC7)C(=O)N8C7CCC(=O)NC7=O)CC6)CC5)cc4F)CC2)n3C)cc1F (stereo partly drawn) [Example 3u20, 3-(5′-(4-((1-(3-fluoro-4-(1-((S)-1-(4-(5-fluoro-4-(methylamino)-2-oxopyridin-1 (2H)-yl)-1-methyl-1H-pyrrolo[2,3-b]pyridin-2-yl)ethyl)-1,2,3,6-tetrahydropyridin-4-yl)-5-methyl-benzoyl)-1,2,3,6-tetrahydropyridin-4-yl)methyl)piperidin-1-yl)-2′-oxospiro[cyclopropane-1,3′-indolin]-1′-yl)piperidine-2,6-dione]	4.7 nM	11.7 nM
CNc1cc(=O)n(-c2ccnc3c2cc([C@H](C)N2CC=C(c4c(C)cc(C(=O)N5CCC(CN6CCN(c7ccc8c(c7)C7(CC7)C(=O)N8C7CCC(=O)NC7=O)C[C@@H]6C)CC5)cc4F)CC2)n3C)cc1F (stereo partly drawn) [Example 3u63, 3-(5′-((S)-4-((1-(3-fluoro-4-(1-((S)-1-(4-(5-fluoro-4-(methylamino)-2-oxopyridin-1 (2H)-yl)-1-methyl-1H-pyrrolo[2,3-b]pyridin-2-yl)ethyl)-1,2,3,6-tetrahydropyridin-4-yl)-5-methylbenzoyl)-piperidin-4-yl)methyl)-3-methylpiperazin-1-yl)-2′-oxospiro[cyclopropane-1,3′-indolin]-1′-yl)-piperidine-2,6-dione]	12.9 nM	67.3 nM
CNc1ccn(-c2ccnc3c2cc(CN2CCC(c4c(F)cc(C(=O)N5CCC(CN6CCN(Cc7ccc8c(c7)n(C7CC7)c(=O)n8[C@@H]7CCC(=O)NC7=O)C[C@@H]6C)CC5)cc4F)CC2)n3C)c(=O)c1 (single isomer, unassigned) [Example 3u218]	2.6 nM	0.8 nM
CN(C(=O)c1cc(F)c(C2CCN(Cc3cc4c(-n5ccc6c(c5=O)CCN6)ccnc4n3C)CC2)c(F)c1)c1ccc(C2CCN(Cc3ccc4c(c3)n(C)c(=O)n4C3CCC(=O)NC3=O)CC2)cc1 (stereo not drawn) [Example 3u251, N-(4-(1-((1-(2,6-dioxopiperidin-3-yl)-3-methyl-2-oxo-2,3-dihydro-1H-benzo[d]-imidazol-5-yl)methyl)piperidin-4-yl)phenyl)-3,5-difluoro-N-methyl-4-(1-((1-methyl-4-(4-oxo-1,2,3,4-tetrahydro-5H-pyrrolo[3,2-c]pyridin-5-yl)-1H-pyrrolo[2,3-b]pyridin-2-yl)methyl)piperidin-4-yl)-benzamide]	0.2 nM	0.9 nM
CNc1ccn(-c2ccnc3c2cc([C@H](C)N2CC=C(c4c(C)cc(C(=O)N5CCC(CN6CCN(Cc7cc8c(cc7F)N([C@@H]7CCC(=O)NC7=O)C(=O)C87CC7)C[C@@H]6C)CC5)cc4F)CC2)n3C)c(=O)c1 (single isomer, unassigned) [Example 3u195]	1.6 nM	2.2 nM
